The values that follow come from article PMC10910856 (RSC Advances, 2024).

By IC50 is commonly meant the concentration needed to halve the response being measured.

The structures appear in SMILES notation.

The first assay relates to α-glucosidase. In words: Alpha-glucosidase inhibitory assay. The assay is classed as biochemical, Bovine. Conditions: ratio of IC50 values.
As to `CC1=NN(c2ccccc2)C(=O)C1=NNc1ccc(S(N)(=O)=O)cc1` [Compound 3a, 4-(2-(3-Methyl-5-oxo-1-phenyl-1,5-dihydro-4H-pyrazol-4-ylidene) hydrazinyl)benzenesulfonamide], the “times more active towards α-glucosidase enzyme than α-amylase enzyme” value is on record as 21 times.

The same assay, now with this note: read-out: α-Glucosidase IC50 (μM ± SD); mean of three replicates.
In the case of `CC1=NN(c2ccccc2)C(=O)C1=NNc1ccc(S(N)(=O)=O)cc1` [Compound 3a, 4-(2-(3-Methyl-5-oxo-1-phenyl-1,5-dihydro-4H-pyrazol-4-ylidene) hydrazinyl)benzenesulfonamide], the half-maximal inhibitory concentration (IC50) was found to be 19.4 ± 2.7 µM.

Regarding `CC1=NN(c2ccc(Cl)cc2)C(=O)C1=NNc1ccc(S(N)(=O)=O)cc1` [Compound 3b, 4-(2-(1-(4-Chlorophenyl)-3-methyl-5-oxo-1,5-dihydro-4H-pyrazol-4-ylidene)hydrazinyl)benzenesulfonamide], the IC50 came to 25.1 ± 0.7 µM.

On to `CC1=NN(c2ccc(F)cc2)C(=O)C1=NNc1ccc(S(N)(=O)=O)cc1` [Compound 3e, 4-(2-(1-(4-Fluorophenyl)-3-methyl-5-oxo-1,5-dihydro-4H-pyrazol-4-ylidene)hydrazinyl)benzenesulfonamide], for which the IC50 is 44.8 ± 3.4 µM.

Turning to `CC1=NN(c2cccc(C)c2)C(=O)C1=NNc1ccc(S(N)(=O)=O)cc1` [Compound 3f, 4-(2-(3-Methyl-5-oxo-1-(m-tolyl)-1,5-dihydro-4H-pyrazol-4-ylidene)-hydrazinyl)benzenesulfonamide], the IC50 worked out at 55.4 ± 4.8 µM.

As to `CC1=NN(c2ccc(C)cc2)C(=O)C1=NNc1ccc(S(N)(=O)=O)cc1` [Compound 3g, 4-(2-(3-Methyl-5-oxo-1-(p-tolyl)-1,5-dihydro-4H-pyrazol-4-ylidene)-hydrazinyl)benzenesulfonamide], the IC50 was determined as 99.1 ± 6.8 µM.

On to `CC1=NN(c2cccc([N+](=O)[O-])c2)C(=O)C1=NNc1ccc(S(N)(=O)=O)cc1` [Compound 3h, 4-(2-(3-Methyl-1-(3-nitrophenyl)-5-oxo-1,5-dihydro-4H-pyrazol-4-ylidene)hydrazinyl)benzenesulfonamide], for which the concentration for half-maximal inhibition (IC50) is 25.6 ± 2.1 µM.

On to `CC1=NN(c2cc(Cl)ccc2Cl)C(=O)C1=NNc1ccc(S(N)(=O)=O)cc1` [Compound 3i, 4-(2-(1-(2,5-Dichlorophenyl)-3-methyl-5-oxo-1,5-dihydro-4H-pyrazol-4-ylidene)hydrazinyl)benzenesulfonamide], for which the half-inhibitory concentration (IC50) was 50.2 ± 4.8 µM.

`CC1=NN(c2ccccn2)C(=O)C1=NNc1ccc(S(N)(=O)=O)cc1` [Compound 3j, 4-(2-(3-Methyl-5-oxo-1-(pyridin-2-yl)-1,5-dihydro-4H-pyrazol-4-ylidene)hydrazinyl)benzenesulfonamide]: the IC50 is 82.7 ± 7.4 µM.

For the compound `CC1=NNC(=O)C1=NNc1ccc(S(N)(=O)=O)cc1` [Compound 4, 4-(2-(3-Methyl-5-oxo-1,5-dihydro-4H-pyrazol-4-ylidene)hydrazinyl)-benzenesulfonamide], the IC50 was found to be 76 ± 6.1 µM.

`CC1=NOC(=O)C1=NNc1ccc(S(N)(=O)=O)cc1` [Compound 5, 4-(2-(3-Methyl-5-oxoisoxazol-4(5H)-ylidene)hydrazinyl)benzene-sulfonamide]: the half-maximal inhibitory concentration (IC50) was determined as 78.7 ± 5.9 µM.

Take `CC1=NNC(=S)NC(=O)C1/N=N/c1ccc(S(N)(=O)=O)cc1` (stereo not shown) [Compound 7, (E)-4-((7-methyl-5-oxo-3-thioxo-3,4,5,6-tetrahydro-2H-1,2,4-triazepin-6-yl)diazenyl)benzenesulfonamide]: the half-inhibitory concentration (IC50) was found to be 85.4 ± 2.3 µM.

On to `CC1=NCCNC(=O)C1=NNc1ccc(S(N)(=O)=O)cc1` [Compound 8, 4-(2-(5-Methyl-7-oxo-1,2,3,7-tetrahydro-6H-1,4-diazepin-6-ylidene)hydrazinyl)benzenesulfonamide], for which the half-inhibitory concentration (IC50) was 110 ± 6.7 µM.
